Experiment: Radiochemical stability in human serum (rad-TLC)
Assay type: in vitro ADME
Settings: 37 °C
Protocol: The stability of PET probes [^18F]2 and [^18F]6 was measured in isotonic NaCl solution (0.9% NaCl) and mouse and human serums at 37 °C for up to 120 min by rad-TLC at 0 min, 30 min, 60 min and 120 min post incubation. The results obtained are presented in Fig. 5 and SI-Figs. S10–S15, SI-Table S1. […] The plausible explanation of the instability of [^18F]6 could be attributed to the covalent interaction of [^18F]6’s SO2F group with primary amines of amino acid residues present in the protein rich mouse and human serums. In fact, in an unrelated study, Zhao et al. reported formation of sulfonamide bond between sulfuryl fluoride and primary amine of conserved lysine residues of different kinases. […] Based on 2’s favorable blood–brain barrier permeability, nanomolar binding affinity and PET probe [^18F]2’s excellent stability in both mouse and human serums, further in vivo evaluations were performed only with PET probe [^18F]2.
Stability of [^18F]2 and [^18F]6 was assessed in isotonic NaCl solution and human and mouse serums. To perform this stability assay, 100 µL of [^18F]2 (~ 37.0 MBq) or 100 µL of [^18F]6 (~ 37.0 MBq) as in final formulation was added to 100 µL of human serum or mouse serum in a microcentrifuge tube. The resultant mixture was incubated at 37 °C for 120 min. To assess the radiochemical stability of the probes, a small aliquot (~ 0.5 µL) was taken out from the mixture in triplicate at 0 min, 30 min, 60 min and 120 min during incubation, and analyzed on a rad-TLC using 0.5:9.5 methanol: chloroform as a mobile phase using i-TLC to estimate the stability of [^18F]2 or [^18F]6 at different time points post-incubation. After Stability preparative processes initial i-TLC development was considered as 0 min.

Percentage of intact probe (0 min): 100 ± 0.0%
Percentage of intact probe (30 min): 100 ± 0.0%
Percentage of intact probe (60 min): 100 ± 0.0%
SMILES: O=C(Nc1cnccc1-c1ccc([18F])cc1)c1ccnc(NC(=O)C2CC2)c1 [[^18F]2]

From paper PMC11237012, “Synthesis and preliminary evaluation of novel PET probes for GSK-3 imaging” (Scientific Reports, 2024)
